Test results taken from patent US7659404B2, “Broad spectrum 2-(substituted-amino)-benzothiazole sulfonamide HIV protease inhibitors” (Tibotec Pharmaceuticals Ltd., priority 2001, dated 2010).
Where two headings read alike, the source gives them in different places.

Assays:
virus strain F (R13025) = experiment: microbe, parasite or virus in culture; type: cell-based, HIV; conditions: FR=EC50(mutant strain)/EC50(HIV-1 strain LAI); strain F
Outline: (§1)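 Activity against mutation-bearing clinical isolates is given as fold resistance, the ratio of mutant to HIV-1 LAI EC50. EC50 and EC90 reflect 50% and 90% protection of infected MT4 cells over a five-day culture. Cell survival was quantified by MTT formazan absorbance at 540 nm.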

virus strain S (R13080) = experiment: microbe, parasite or virus in culture; type: cell-based, HIV; conditions: FR=EC50(mutant strain)/EC50(HIV-1 strain LAI); strain S
Outline: as §1

[1] = tested on: clinically isolated HIV strain J; type: cell-based; conditions: FR=EC50(mutant strain)/EC50(HIV-1 strain LAI)
Outline: as §1

[2] = tested on: clinically isolated HIV strain T; type: cell-based; conditions: FR=EC50(mutant strain)/EC50(HIV-1 strain LAI)
Outline: as §1

[3] = tested on: clinically isolated HIV strain I; type: cell-based; conditions: FR=EC50(mutant strain)/EC50(HIV-1 strain LAI)
Outline: as §1

[4] = tested on: clinically isolated HIV strain O; type: cell-based; conditions: FR=EC50(mutant strain)/EC50(HIV-1 strain LAI)
Outline: as §1

[5] = tested on: clinically isolated HIV strain H; type: cell-based; conditions: FR=EC50(mutant strain)/EC50(HIV-1 strain LAI)
Outline: as §1

HIV-1 strain LAI = experiment: Cellular anti-HIV assay in MT4 cells (MTT), wild type laboratory strain; type: cell-based; conditions: read-out: EC50 value against HIV-1 strain LAI
Description: The compounds of the present invention were examined for anti-viral activity in a cellular assay. […] The cellular assay was performed according to the following procedure.
Cellular Assay Experimental Method:
(§2) HIV- or mock-infected MT4 cells were incubated for five days in the presence of various concentrations of the inhibitor. At the end of the incubation period, all HIV-infected cells have been killed by the replicating virus in the control cultures in the absence of any inhibitor. Cell viability is measured by measuring the concentration of MTT, a yellow, water soluble tetrazolium dye that is converted to a purple, water insoluble formazan in the mitochondria of living cells only. Upon solubilization of the resulting formazan crystals with isopropanol, the absorbance of the solution is monitored at 540 nm. The values correlate directly to the number of living cells remaining in the culture at the completion of the five day incubation. The inhibitory activity of the compound was monitored on the virus-infected cells and was expressed as EC50 and EC90. These values represent the amount of the compound required to protect 50% and 90%, respectively, of the cells from the cytopathogenic effect of the virus. The toxicity of the compound was measured on the mock-infected cells and was expressed as CC50, which represents the concentration of compound required to inhibit the growth of the cells by 50%. The selectivity index (SI) (ratio CC50/EC50) is an indication of the selectivity of the anti-HIV activity of the inhibitor.

[6] = tested on: clinically isolated HIV strain D; experiment: Antiviral spectrum, cellular assay (fold resistance), strain D; type: cell-based; conditions: FR=EC50(mutant strain)/EC50(HIV-1 strain LAI)
Description: as §2
(§3) Because of the increasing emergence of drug resistant HIV strains, the present compounds were tested for their potency against clinically isolated HIV strains harboring several mutations. These mutations are associated with resistance to protease inhibitors and result in viruses that show various degrees of phenotypic cross-resistance to the currently commercially available drugs such as for instance saquinavir, ritonavir, nelfinavir, indinavir and amprenavir.
(§4) As a measure of the broad spectrum activity of the present compounds, the fold resistance (FR) defined as FR=EC50(mutant strain)/EC50(HIV-1 strain LAI).

[7] = tested on: clinically isolated HIV strain L; experiment: Antiviral spectrum, cellular assay (fold resistance), strain L; type: cell-based; conditions: FR=EC50(mutant strain)/EC50(HIV-1 strain LAI)
Description: as §2, §3, §4

[8] = tested on: clinically isolated HIV strain G; experiment: Antiviral spectrum, cellular assay (fold resistance), strain G; type: cell-based; conditions: FR=EC50(mutant strain)/EC50(HIV-1 strain LAI)
Description: as §2, §3, §4

[9] = tested on: clinically isolated HIV strain P; experiment: Antiviral spectrum, cellular assay (fold resistance), strain P; type: cell-based; conditions: FR=EC50(mutant strain)/EC50(HIV-1 strain LAI)
Description: as §2, §3, §4

[10] = tested on: clinically isolated HIV strain Q; experiment: Antiviral spectrum, cellular assay (fold resistance), strain Q; type: cell-based; conditions: FR=EC50(mutant strain)/EC50(HIV-1 strain LAI)
Description: as §2, §3, §4

[11] = tested on: clinically isolated HIV strain N; experiment: Antiviral spectrum, cellular assay (fold resistance), strain N; type: cell-based; conditions: FR=EC50(mutant strain)/EC50(HIV-1 strain LAI)
Description: as §2, §3, §4

[12] = tested on: clinically isolated HIV strain E; experiment: Antiviral spectrum, cellular assay (fold resistance), strain E; type: cell-based; conditions: FR=EC50(mutant strain)/EC50(HIV-1 strain LAI)
Description: as §2, §3, §4

[13] = tested on: clinically isolated HIV strain C; experiment: Antiviral spectrum, cellular assay (fold resistance), strain C; type: cell-based; conditions: FR=EC50(mutant strain)/EC50(HIV-1 strain LAI)
Description: as §2, §3, §4

[14] = tested on: clinically isolated HIV strain R; experiment: Antiviral spectrum, cellular assay (fold resistance), strain R; type: cell-based; conditions: FR=EC50(mutant strain)/EC50(HIV-1 strain LAI)
Description: as §2, §3, §4

[15] = tested on: clinically isolated HIV strain A; experiment: Antiviral spectrum, cellular assay (fold resistance), strain A; type: cell-based; conditions: FR=EC50(mutant strain)/EC50(HIV-1 strain LAI)
Description: as §2, §3, §4

[16] = tested on: clinically isolated HIV strain B; experiment: Antiviral spectrum, cellular assay (fold resistance), strain B; type: cell-based; conditions: FR=EC50(mutant strain)/EC50(HIV-1 strain LAI)
Description: as §2, §3, §4

[17] = tested on: clinically isolated HIV strain M; experiment: Antiviral spectrum, cellular assay (fold resistance), strain M; type: cell-based; conditions: FR=EC50(mutant strain)/EC50(HIV-1 strain LAI)
Description: as §2, §3, §4

[18] = tested on: clinically isolated HIV strain K; experiment: Antiviral spectrum, cellular assay (fold resistance), strain K; type: cell-based; conditions: FR=EC50(mutant strain)/EC50(HIV-1 strain LAI)
Description: as §2, §3, §4

[19] = Human immunodeficiency virus 1, MT4, 120 h
[20] = Human immunodeficiency virus 1, 120 h, MT4 cells, five days, MTT

| Compound | fold resistance (FR), strain F (virus strain F (R13025)) | fold resistance (FR), strain S (virus strain S (R13080)) | fold resistance (FR), strain J [1] | fold resistance (FR), strain T [2] | fold resistance (FR), strain I [3] | fold resistance (FR), strain O [4] | fold resistance (FR), strain H [5] | EC50 (HIV-1 strain LAI; [19]) | EC50 (HIV-1 strain LAI; [20]) | also measured |
| --- | --- | --- | --- | --- | --- | --- | --- | --- | --- | --- |
| CC(C)CN(CC(O)C(Cc1ccccc1)NC(=O)OC1CCOC1)S(=O)(=O)c1ccc2nc(NCCN(C)C)sc2c1 (stereo not drawn) [Compound 56] | 33.1 | 67.1 | 2.8 | 509.6 | 3.2 | 2.1 | 4.6 | < 50 nM |  |  |
| CC(C)CN(CC(O)C(Cc1ccccc1)NC(=O)OC1COC2OCCC12)S(=O)(=O)c1ccc2nc(NC(=O)CN(C)C)sc2c1 (mixture of isomers) [Compound 3] | 1.1 | 1.8 |  | 34.2 | 0.8 | 1.0 | 1.0 |  |  | fold resistance (FR), strain D [6]: 0.8; fold resistance (FR), strain L [7]: 0.3; fold resistance (FR), strain G [8]: 0.4; fold resistance (FR), strain P [9]: 0.4; fold resistance (FR), strain Q [10]: 0.5; fold resistance (FR), strain N [11]: 2.3; fold resistance (FR), strain E [12]: 0.4; fold resistance (FR), strain C [13]: 0.4; fold resistance (FR), strain R [14]: 0.5; fold resistance (FR), strain A [15]: 0.4 |
| CC(C)CN(C[C@@H](O)[C@H](Cc1ccccc1)NC(=O)OC1COC2OCCC12)S(=O)(=O)c1ccc2nc(NCCN(C)C)sc2c1 (mixture of isomers) [Compound 4] | 2.2 | 2.9 | 0.5 | 48.8 | 1.2 | 0.5 | 1.9 |  | < 50 nM |  |
| CC(=O)N(CCN1CCCC1)c1nc2ccc(S(=O)(=O)N(CC(C)C)CC(O)C(Cc3ccccc3)NC(=O)OC3COC4OCCC34)cc2s1 (stereo not drawn) [Compound 19] | 2.4 | 2.2 | 0.6 | 10.5 | 1.1 | 0.5 | 2.1 |  | < 50 nM |  |
| CC(C)CN(CC(O)C(Cc1ccccc1)NC(=O)OC1COC2OCCC12)S(=O)(=O)c1ccc2nc(NCC[N+](C)(C)[O-])sc2c1 (stereo not drawn) [Compound 27] | 1.4 | 5.1 | 0.7 | 5.4 | 1.3 | 0.6 | 1.2 | > 500 nM |  |  |
| CC(=O)Nc1nc2ccc(S(=O)(=O)N(CCNc3ccccn3)CC(O)C(Cc3ccccc3)NC(=O)OC3COC4OCCC34)cc2s1 (stereo not drawn) [Compound 29] |  |  |  |  |  |  |  | 50 to 500 nM |  |  |
| CC(=O)N(C)c1nc2ccc(S(=O)(=O)N(Cc3ccccn3)CC(O)C(Cc3ccccc3)NC(=O)OC3COC4OCCC34)cc2s1 (stereo not drawn) [Compound 33] | 7.6 | 467.3 | 5.9 | 467.3 | 7.1 | 3.4 | 6.8 |  | < 50 nM |  |
| CC(=O)N(C)c1nc2ccc(S(=O)(=O)N(Cc3ccccn3)CC(O)C(Cc3ccccc3)NC(=O)OCc3c(C)cccc3C)cc2s1 (stereo not drawn) [Compound 31] |  |  |  |  |  |  |  | > 500 nM |  |  |
| CCN1CCCC1CNc1nc2ccc(S(=O)(=O)N(CC(C)C)C[C@@H](O)[C@H](Cc3ccccc3)NC(=O)O[C@H]3CO[C@H]4OCC[C@H]43)cc2s1 (stereo partly drawn) [Compound 93] | 1.1 | 4.68 |  |  |  |  |  |  | < 50 nM |  |
| CC(C)CN(C[C@@H](O)[C@H](Cc1ccccc1)NC(=O)OCc1cccnc1)S(=O)(=O)c1ccc2nc(NCCCN(C)C)sc2c1 [Compound 52] | 10.2 | 20.3 | 2.7 | 124.5 | 1.3 | 1.6 | 1.8 |  |  |  |
| Cc1cccc(C)c1OCC(=O)N[C@@H](Cc1ccccc1)[C@H](O)CN(CC(C)C)S(=O)(=O)c1ccc2nc(NCCN3CCNCC3)sc2c1 [Compound 59] | 2.3 | 4.7 | 1.7 | 22.2 | 1.2 | 2.0 | 1.2 |  |  |  |
| CC(C)CN(C[C@@H](O)[C@H](Cc1ccccc1)NC(=O)OCc1cncs1)S(=O)(=O)c1ccc2nc(NCCCN(C)C)sc2c1 [Compound 51] | 2.9 | 2.1 | 0.9 | 51.8 | 2.6 | 0.6 | 1.8 |  |  |  |
| CC(=O)N(CCN1CCCC1)c1nc2ccc(S(=O)(=O)N(CC(C)C)C[C@@H](O)[C@H](Cc3ccccc3)NC(=O)COc3c(C)cccc3C)cc2s1 [Compound 78] | 4.8 | 12.1 | 2.9 | 60.5 | 3.9 | 8.9 | 2.6 |  |  |  |
| CC(C)CN(CC(O)C(Cc1ccccc1)NC(=O)OC1COC2OCCC12)S(=O)(=O)c1ccc2nc(NC(=O)CN(C)C)sc2c1 (stereo not drawn) [Compound 11] | 0.7 | 1.1 | 0.4 | 7.3 | 0.5 | 0.7 | 0.9 |  | < 50 nM | fold resistance (FR), strain D [6]: 0.3; fold resistance (FR), strain L [7]: 0.3; fold resistance (FR), strain G [8]: 0.5; fold resistance (FR), strain B [16]: 0.4; fold resistance (FR), strain P [9]: 0.3; fold resistance (FR), strain Q [10]: 0.0; fold resistance (FR), strain N [11]: 1.6; fold resistance (FR), strain M [17]: 0.4; fold resistance (FR), strain C [13]: 0.5; fold resistance (FR), strain R [14]: 0.5; fold resistance (FR), strain A [15]: 0.3; fold resistance (FR), strain K [18]: 0.4 |
| CC(C)CN(CC(O)C(Cc1ccccc1)NC(=O)OC1COCC1N(C)C)S(=O)(=O)c1ccc2nc(NCCN(C)C)sc2c1 (stereo not drawn) [Compound 44] | 80.2 | 89.3 | 29.5 | 89.3 | 7.5 | 11.2 | 29.4 | 50 to 500 nM |  |  |
